In paper PMC6539310, “Investigation on the Enzymatic Profile of Mulberry Alkaloids by Enzymatic Study and Molecular Docking” (Molecules, 2019):
Where two headings read alike, the source gives them in different places.

Assays:
maltase = maltase (Rattus norvegicus, UniProt D3ZTX4); test: Enzyme-kinetic analysis on maltase (Lineweaver–Burk plots); type: biochemical, Wistar rats; conditions: maltose substrate
Protocol: (§1) Sucrase and maltase were obtained from the intestinal brush border of Wistar rats. […] Each stock solution was prepared with distilled water. All other solvents and chemicals were of analytical purity.
(§2) Lineweaver–Burk double reciprocal plots (LB plots) were then obtained to calculate the kinetic constants and evaluate inhibitory type, the equation is as follows: 1/V = (Km + [S])/(Vmax[S]) = (Km/Vmax) * (1/[S]) + (1/Vmax),
(§3) In this equation, [S] denotes the concentration of substrate, V represents the enzyme reaction velocity and Km is the Michaelis–Menten constant.

α-amylase = α-amylase inhibition assay (starch-iodine); type: biochemical; conditions: for α-Amylase Inhibition, Inhibition Ratio (%): at 1 × 10^−5 M
Protocol: as §1
α-amylase was pre-incubated with different compound concentrations (0.016–100 μmol/L) at 37 °C for 15 min, and the reaction was initiated with the addition of 100 µL of 0.04% starch solution. After incubation at 37 °C for 10 min, 0.1 M iodine reagent was added. Absorption at 660 nm was measured to determine the remaining amount of starch in the reaction and thus calculate the inhibitory effect in the different samples.

sucrase [1] = target: T1, sucrase (Rattus norvegicus, UniProt P23739); test: α-glucosidase inhibition assay, sucrase (sucrose substrate, glucose oxidase readout); type: biochemical, Wistar rats; conditions: for Sucrase Inhibition, Inhibition Ratio (%): at 4 × 10^−5 M
T1 construct: Sucrase and maltase were obtained from the intestinal brush border of Wistar rats; from tissue; host or cells: intestinal brush border of Wistar rats
T1 sequence (P23739 whole entry): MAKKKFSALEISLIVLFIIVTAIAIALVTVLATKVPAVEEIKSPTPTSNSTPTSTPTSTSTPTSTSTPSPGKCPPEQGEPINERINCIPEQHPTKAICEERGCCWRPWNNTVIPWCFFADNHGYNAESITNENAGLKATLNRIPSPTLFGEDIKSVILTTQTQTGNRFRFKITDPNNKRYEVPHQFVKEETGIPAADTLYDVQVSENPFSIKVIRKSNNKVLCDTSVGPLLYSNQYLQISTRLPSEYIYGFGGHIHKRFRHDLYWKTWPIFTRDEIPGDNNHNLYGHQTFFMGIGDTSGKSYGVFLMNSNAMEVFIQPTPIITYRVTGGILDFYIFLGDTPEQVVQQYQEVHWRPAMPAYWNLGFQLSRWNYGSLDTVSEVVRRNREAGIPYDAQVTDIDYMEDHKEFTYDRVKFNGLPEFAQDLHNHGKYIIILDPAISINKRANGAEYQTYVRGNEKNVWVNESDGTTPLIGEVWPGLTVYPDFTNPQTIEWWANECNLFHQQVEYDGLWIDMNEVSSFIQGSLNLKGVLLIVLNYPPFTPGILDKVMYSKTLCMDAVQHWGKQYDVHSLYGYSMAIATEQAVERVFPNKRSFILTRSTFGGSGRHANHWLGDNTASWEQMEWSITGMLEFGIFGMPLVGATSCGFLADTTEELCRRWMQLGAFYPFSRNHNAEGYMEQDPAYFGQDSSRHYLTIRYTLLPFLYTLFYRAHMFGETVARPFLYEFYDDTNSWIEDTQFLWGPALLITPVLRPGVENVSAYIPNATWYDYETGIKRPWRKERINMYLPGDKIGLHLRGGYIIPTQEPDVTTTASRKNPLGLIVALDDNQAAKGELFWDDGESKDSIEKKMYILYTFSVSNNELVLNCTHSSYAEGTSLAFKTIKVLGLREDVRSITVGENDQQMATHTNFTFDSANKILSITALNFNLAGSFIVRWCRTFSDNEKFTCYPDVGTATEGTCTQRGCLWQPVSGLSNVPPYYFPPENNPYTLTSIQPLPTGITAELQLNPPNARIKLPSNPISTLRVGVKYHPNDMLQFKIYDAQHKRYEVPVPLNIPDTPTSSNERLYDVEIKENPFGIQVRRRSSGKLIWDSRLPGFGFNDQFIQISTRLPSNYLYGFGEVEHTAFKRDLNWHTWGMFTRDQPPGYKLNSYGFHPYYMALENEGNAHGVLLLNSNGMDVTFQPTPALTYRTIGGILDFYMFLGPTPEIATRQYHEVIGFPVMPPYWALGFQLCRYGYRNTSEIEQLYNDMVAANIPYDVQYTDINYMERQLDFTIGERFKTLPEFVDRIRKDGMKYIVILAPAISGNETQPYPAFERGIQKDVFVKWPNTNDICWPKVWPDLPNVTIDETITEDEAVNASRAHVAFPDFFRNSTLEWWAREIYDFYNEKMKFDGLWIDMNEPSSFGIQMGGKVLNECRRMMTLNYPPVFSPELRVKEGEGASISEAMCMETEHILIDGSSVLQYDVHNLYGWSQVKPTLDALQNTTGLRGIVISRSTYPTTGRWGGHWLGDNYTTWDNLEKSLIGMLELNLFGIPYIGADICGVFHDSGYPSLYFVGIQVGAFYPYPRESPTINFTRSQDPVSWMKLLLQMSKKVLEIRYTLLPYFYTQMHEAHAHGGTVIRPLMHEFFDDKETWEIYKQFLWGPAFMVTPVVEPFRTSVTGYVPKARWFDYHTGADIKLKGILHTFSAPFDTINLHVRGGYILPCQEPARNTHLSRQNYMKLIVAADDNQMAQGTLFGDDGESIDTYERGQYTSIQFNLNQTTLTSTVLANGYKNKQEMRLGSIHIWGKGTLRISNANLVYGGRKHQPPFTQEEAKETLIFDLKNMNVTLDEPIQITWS
Protocol: as §1
The modified inhibitory screening system was used to determine inhibitory activity on α-glucosidase. Selected starch, sucrose, and maltose were used as α-glucosidase substrates instead of p-nitrophenyl glucopyranoside. Maltase and sucrase were pre-incubated with different concentrations of compound (0.004–400 μmol/L) at 37 °C for 8 min, and the substrate was then added into initiate the reaction. After incubation at 37 °C for 40 min, 150 μL of glucose oxidase solution was added to each mixture and incubated at 37 °C for 40 min. […] Inhibitory percentage values were calculated using the formula: %Inhibition = (B − C)/B × 100, where B is the formation of glucose under the enzyme without compound and C is the formation of glucose with compound.

sucrase [2] = target: T1, sucrase; test: Enzyme-kinetic analysis on sucrase (Lineweaver–Burk plots); type: biochemical, Wistar rats; conditions: for Ki: from LB plots; for Inhibition Type: sucrose substrate
Protocol: as §1, §2, §3

[3] = read-out: Sucrase Inhibition IC50

SMILES | Inhibition Type (maltase) | IC50 (α-amylase) [µM] | Inhibitory activity on α-amylase (in words) (α-amylase) | α-Amylase Inhibition, Inhibition Ratio (%) (α-amylase) | Selectivity sucrase over amylase (IC50 amylase/IC50 disaccharidases) (sucrase [1]; IC50 amylase / IC50 sucrase) [times] | Sucrase Inhibition, Inhibition Ratio (%) (sucrase [1]) | IC50 (sucrase [1]; converted from μmol/L by mol wt, read-out: Sucrase IC50 after conversion according to the molecular weight (converted)) [µM] | IC50 (sucrase [1]; [3]) [µM] | Ki (sucrase [2]) [µM] | Inhibition Type (sucrase [2])
OC[C@H]1NC[C@H](O)[C@@H](O)[C@@H]1O [1-DNJ, 1-deoxynojirimycin] | Competitive inhibition | > 100 | no obvious inhibitory activity | 0 | 1282 | 100 | 0.0613 | 0.078 | 0.0137 | Competitive inhibition
C[C@H]1O[C@H](O[C@H]2[C@H](O)[C@@H](O)[C@@H](O[C@H]3[C@H](O)[C@@H](O)C(O)O[C@@H]3CO)O[C@@H]2CO)[C@H](O)[C@@H](O)[C@@H]1N[C@H]1C=C(CO)[C@@H](O)[C@H](O)[C@H]1O (stereo partly drawn) [Acarbose, acarbose, reference compound] | Competitive inhibition |  | strongly inhibited |  |  |  |  |  |  | Competitive inhibition
OC[C@H]1NC[C@@H](O)[C@@H]1O [DAB, 1,4-dideoxy-1,4-imino-D-arabinitol] | Competitive inhibition | > 100 | no obvious inhibitory activity |  |  |  |  |  |  | 
OC[C@H]1NCC[C@@H](O)[C@@H]1O [FA, fagomine] | Competitive inhibition | > 100 | no obvious inhibitory activity | 0 |  | 84.6 |  | 13.5 | 3.97 | Competitive inhibition
